The text below walks through data of patent US9295732B2, “Conjugated TLR7 and/or TLR8 and TLR2 polycationic agonists” (CAYLA, priority 2013, dated 2016).

Experiment [1] relates to endogenous TLR2 and TLR7 in RAW-Blue™ Cells. Briefly: RAW-Blue Cells NF-κB/AP-1 SEAP reporter assay. Format: cell-based, mouse. The note with it: 24 hours, OD at 655 nm, FIG. 4. An outline of the steps:
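HEK293 cells stably expressing the given TLR, or RAW 264.7-derived cells (50,000 or 100,000 cells/well respectively), carry an NF-κB/AP-1-inducible SEAP reporter. Conjugated TLR7-TLR2 agonists at final 10 μg/mL to 10 pg/ml, 24 h at 37° C. SEAP read colorimetrically as OD at 655 nm in detection medium.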
Background: A reporter such as luciferase makes a cellular process visible.

A further experiment relates to HEK293 cells. In words: Cell transfection with SEAP plasmid, HEK293. Conditions: in complex with pVitro14 LGFP SEAP plasmid, 48 hours, SEAP expression; FIG. 5A. Format: cell-based, human. The protocol:
(§1) The TLR7-TLR2 molecules were tested for their ability as polyamine molecules to transport plasmid DNA (pDNA) into cells. The pVitro14 LGFP SEAP plasmid (InvivoGen) was complexed to TLR7-TLR2 polyamine molecules and to the control cationic lipid transfection agent, LyoVec™ (InvivoGen). The human HEK293 (ATCC, CRL-1573) and mouse B16-F1 melanoma (ATCC, CRL-6323) cell lines were seeded at a density of 50 000 cells/well and 20 000 cells/well respectively, in the absence or presence of different volumes of the plasmid encoding for the SEAP protein in complex with TLR7-TLR2 polyamine molecules for 48 hours at 37° C. and 10% CO2. Transfection efficiency was assessed by measuring SEAP reporter gene expression: 20 μl of supernatant was sampled and mixed with 180 μl of QUANTI-Blue™ Detection (InvivoGen). In the presence of alkaline phosphatase SEAP, the color of QUANTI-Blue™ changes from pink to purple/blue. The intensity of the blue hue reflects the activity of SEAP. The levels of SEAP secretion were determined quantitatively by reading the OD at 620-655 nm using a spectrophotometer, iMark™ Microplate Reader (BIO-RAD).

The next experiment concerns B16-F1 cells. In words: Cell transfection with SEAP plasmid, B16-F1. The class given is cell-based, mouse. Conditions: in complex with pVitro14 LGFP SEAP plasmid, 48 hours, SEAP expression; FIG. 5B. As for the experimental part:
as §1

Experiment [2] deals with ISG54 promoter activity in B16-ISG54 reporter cells. Briefly: IFN response assay, B16-ISG54 luciferase reporter cells. The note with it: in complexes with pDNA 3:24 (w:w), overnight, FIG. 6B. The class given is cell-based, mouse. As for the experimental part: The effect of the pDNA:TLR7-TLR2 polyamine molecules complexes on inducing an interferon response was examined. pDNA:TLR7-TLR2 polyamine molecules mixtures (pDNA:TLR7-TLR2 polyamine molecules ratio 3:24, w:w) in serum-free medium or 5% glucose were prepared as described above and added to IFN reporter cells. Luciferase reporter cell lines were used to assay interferon response. A plasmid containing an interferon-inducible luciferase reporter gene was introduced into mouse RAW 264.7 macrophages and mouse B16 melanoma cells, giving rise to the RAW-ISG54 and B16-ISG54 reporter cell lines respectively. Expression of the luciferase reporter gene by the plasmid is under the control of an interferon-inducible promoter (I-ISG54) comprising five interferon-stimulated response elements (ISRE) and the minimal promoter of the human ISG-54K (Interferon Stimulation of a Gene encoding a 54 kDa protein) gene. The ISG-54K gene is induced by interferon regulatory factor 3 (IRF3), which has a key involvement in […] responses (Grandvaux et al. 2002) and the minimal promoter of the human ISG-54K gene contains two ISRE sites and fully inducible by type I interferons (IFN-α and IFN-β) and interferon regulatory factors (IRFs) (Wathelet et al. 1988; Grandvaux et al. 2002).
The RAW-ISG54 and B16-ISG54 reporter cell lines were seeded onto 96 well microtiter plates at 100,000 cells per well and 75,000 cells per well respectively. Cells were cultured in DMEM supplemented with 10% (v/v) heat inactivated fetal bovine serum (30 min at 56° C.), 4.5 g/I glucose, 2 mM L-glutamine, 50 U/ml penicillin, 50 μg/ml streptomycin, 100 μg/ml Normocin™ (InvivoGen) together with pDNA:TLR7-TLR2 polyamine complexes at 37° C. overnight. pDNA:TLR7-TLR2 polyamine molecules complexes were prepared as described above prior to adding to the IFN reporter cells. The induced luciferase expression was assessed in the reporter cell lines using a coelenterazine-base luminescence assay reagent, the Quanti-Luc™ (InvivoGen). Secreted luciferase activity was determined by bioluminescence quantification of the cell culture media using a microplate luminometer (FLUOstar OPTIMA from BMG Labtech).

As to “(6S,9S,12S,15S,18S,21R)-6,25-diamino-21-(4-((6-amino-2-(butylamino)-8-hydroxy-9H-purin-9-yl)methyl)phenylcarbamoyl)-12,15,18-tris(4-aminobutyl)-9-(hydroxyl methyl)-7,10,13,16,19-pentaoxo-4-thia-8,11,14,17,20-pentaazapentacosane-1,2-diyl dipalmitate [CL413]”, the “ability to activate endogenous TLR2 and TLR7 in RAW-Blue Cells” value (from here on “ability … in RAW-Blue Cells”) in experiment [1] was “activate endogenous TLR2 and TLR7”. In addition, the “ability to transfect HEK293 cells” value in the experiment with HEK293 cells was “lack the ability to transfect cells”. In addition, the “ability to transfect B16-F1 cells” value in the experiment with B16-F1 cells was “lack the ability to transfect cells”. Further, the “ability to induce an IFN response in B16-ISG54 reporter cells” value (from here on “ability to induce an IFN response”) in experiment [2] was “induce an IFN response in B16-ISG54 reporter cells”.
With `CCCCCCCCCCCCCCCC(=O)OCC(CSC[C@H](N)C(=O)N[C@@H](CCC(=O)NCCCNCCCCNCCCN)C(=O)Nc1ccc(Cn2c(O)nc3c(N)nc(NCCCC)nc32)cc1)OC(=O)CCCCCCCCCCCCCCC` (stereo partly drawn) [CL527, (6R,9S)-6,25-diamino-9-(4-((6-amino-2-(butylamino)-8-hydroxy-9H-purin-9-yl)methyl)phenylcarbamoyl)-7,12-dioxo-4-thia-8,13,17,22-tetraazapentacosane-1,2-diyl dipalmitate], the “ability … in RAW-Blue Cells” value in experiment [1] was “activate endogenous TLR2 and TLR7”. The “ability to transfect HEK293 cells” value in the experiment with HEK293 cells is given as “transfect HEK293 cells”. Further, in the experiment with B16-F1 cells, the “ability to transfect B16-F1 cells” value is reported as “transfect B16-F1 cells”. Further, the “ability to induce an IFN response” value in experiment [2] is given as “induce an IFN response in B16-ISG54 reporter cells”.
As to `CCCCCCCCCCCCCCCC(=O)N[C@@H](CSCC(COC(=O)CCCCCCCCCCCCCCC)OC(=O)CCCCCCCCCCCCCCC)C(=O)N[C@@H](CO)C(=O)N[C@@H](CCCCN)C(=O)N[C@@H](CCCCN)C(=O)N[C@@H](CCCCN)C(=O)N[C@@H](CCCCN)C(=O)Nc1ccc(Cn2c(O)nc3c(N)nc(NCCCC)nc32)cc1` (stereo partly drawn) [CL534, ((6R,9S,12S,15S,18S,21S)-25-amino-21-(4-((6-amino-2-(butylamino)-8-hydroxy-9H-purin-9-yl)methyl)phenylcarbamoyl)-12,15,18-tris(4-aminobutyl)-9-(hydroxylmethyl)-7,10,13,16,19-pentaoxo-6-palmitamido-4-thia-8,11,14,17,20-pentaazapentacosane-1,2-diyl dipalmitate], the “ability … in RAW-Blue Cells” value in experiment [1] was “activate endogenous TLR2 and TLR7”. In addition, the “ability to transfect HEK293 cells” value in the experiment on HEK293 cells is recorded as “lack the ability to transfect cells”. Also, the “ability to transfect B16-F1 cells” value in the experiment on B16-F1 cells was “lack the ability to transfect cells”.
With `CCCCCCCCCCCCCCCC(=O)OCC(CSC[C@H](N)C(=O)N[C@@H](COC(=O)c1ccc(Cn2c(O)nc3c(N)nc(NCCCC)nc32)cc1)C(=O)NCCCNCCCCNCCCN)OC(=O)CCCCCCCCCCCCCCC` (stereo partly drawn) [CL514, (6R,9S)-6,23-diamino-9-((4-((6-amino-2-(butylamino)-8-hydroxy-9H-purin-9-yl)methyl)benzoyloxy)methyl)-7,10-dioxo-4-thia-8,11,15,20-tetraazatricosane-1,2-diyl dipalmitate], the “ability … in RAW-Blue Cells” value in experiment [1] is “activate endogenous TLR2 and TLR7”. For the same compound, the “ability to transfect HEK293 cells” value in the experiment on HEK293 cells was “transfect HEK293 cells”. The “ability to transfect B16-F1 cells” value in the experiment on B16-F1 cells is on record as “transfect B16-F1 cells”. The “ability to induce an IFN response” value in experiment [2] is listed as “induce an IFN response in B16-ISG54 reporter cells”.
As for `CCCCCCCCCCCCCCCC(=O)OCC(CSC[C@H](N)C(=O)NCCCNCCCCNCCCNC(=O)CNC(=O)c1ccc(Cn2c(O)nc3c(N)nc(NCCCC)nc32)cc1)OC(=O)CCCCCCCCCCCCCCC` (stereo partly drawn) [CL553, (20R)-20-amino-1-(4-((6-amino-2-(butylamino)-8-hydroxy-9H-purin-9-yl)methyl)phenyl)-1,4,19-trioxo-22-thia-2,5,9,14,18-pentaazapentacosane-24,25-diyl dipalmitate], the “ability … in RAW-Blue Cells” value in experiment [1] is “activate endogenous TLR2 and TLR7”. The “ability to transfect HEK293 cells” value with HEK293 cells is on record as “transfect HEK293 cells”. In the experiment with B16-F1 cells, the “ability to transfect B16-F1 cells” value is reported as “transfect B16-F1 cells”. For the same compound, the “ability to induce an IFN response” value in experiment [2] is “induce an IFN response in B16-ISG54 reporter cells”.
